Data on 93 compounds can be found in ChEMBL document CHEMBL3507680, “University of Dundee, Gates Library screen for HepG2 cell viability”.

Structures are written as SMILES.

The nature of the data set: Human HepG2 cell viability assay in 384 well format. The class given is toxicity, cell-based. Also noted: dose 125 nL, time 70.5 hour; concentration not given beside the values. To be noted: HepG2 cells, read-out: Inhibition.
Take `CCNC(=O)N1CCC(c2ccccc2)C1` (stereo not drawn): the cytotoxicity at 70.5 h came to 2.66%.

On to `CS(=O)(=O)N1CCC(CNC(=O)c2cnccn2)CC1`, for which the cytotoxicity at 70.5 h stood at 31.3%.

`COc1ccc(CN2CC[C@H](c3nnc(-c4ccco4)o3)C2)cc1`: the cytotoxicity at 70.5 h was determined as 23%.

For `NC(=O)CN1C(=O)CO[C@H]2CN(Cc3ccc(Cl)cc3)C[C@H]21`, the cytotoxicity at 70.5 h came to 13%.

On to `CCNC(=O)N1C[C@@H]2OCC(=O)N(CC3CCCCC3)[C@@H]2C1`, for which the cytotoxicity at 70.5 h is -3.95%.

For the compound `COCC(=O)N[C@H]1C[C@@H](Cc2cc(CN3CCCCC3)on2)C1(C)C`, the cytotoxicity at 70.5 h is 24.1%.

In the case of `CN1CCOC[C@H]1c1nc(-c2cccc(F)c2)c[nH]1`, the cytotoxicity at 70.5 h was 2.61%.

Consider `CC(C)(C)c1coc([C@@H]2COCCN2Cc2ccccn2)n1`, for which the cytotoxicity at 70.5 h was 2.91%.

In the case of `CC(C)(C)c1coc([C@@H]2COCCN2Cc2ncc[nH]2)n1`, the cytotoxicity at 70.5 h was -0.512%.

For `CN1CCC(N2CCOC[C@H]2c2nc(-c3ccncc3)c[nH]2)CC1`, the cytotoxicity at 70.5 h came to 3.14%.

On to `CC(=O)N1CC[C@H](c2nc3cc(F)ccc3o2)C1`, for which the cytotoxicity at 70.5 h amounted to 2.32%.

For `CCN(CC)C[C@H]1CN2CC[C@H]1C[C@@H]2CNC(=O)Nc1ccsc1`, the cytotoxicity at 70.5 h was -8.02%.

With `Cn1cncc1-c1nnc([C@H]2CCN(Cc3ccc(CO)o3)C2)o1`, the cytotoxicity at 70.5 h amounted to 5.94%.

In the case of `Cn1cncc1-c1nnc([C@H]2CCN(Cc3ncc[nH]3)C2)o1`, the cytotoxicity at 70.5 h came out at 2.99%.

With `COc1ccc(-c2nnc([C@H]3CCN(CC(C)(C)C)C3)o2)cc1`, the cytotoxicity at 70.5 h was -1.13%.

For the compound `c1cc(-c2nnc([C@H]3CCN(C4CCCCC4)C3)o2)ccn1`, the cytotoxicity at 70.5 h was -0.595%.

`COc1cccc(CN2CC[C@H](c3nnc(C)o3)C2)c1`: the cytotoxicity at 70.5 h was 2.22%.

In the case of `c1cc(-c2nnc([C@H]3CCN(C4CCOCC4)C3)o2)ccn1`, the cytotoxicity at 70.5 h came out at 2.55%.

For the compound `c1ccc2c(Cc3nnc([C@H]4CCN(C5CCC5)C4)o3)c[nH]c2c1`, the cytotoxicity at 70.5 h was -6.08%.

On to `Cc1ccc(CN2CC[C@H](c3nnc(-c4ccco4)o3)C2)cc1`, for which the cytotoxicity at 70.5 h came out at 6.16%.

In the case of `CCCc1nnc([C@H]2CCN(Cc3ncc[nH]3)C2)o1`, the cytotoxicity at 70.5 h is -1.6%.

Regarding `O=C(C1CC1)N1C[C@@H](F)[C@@H](OCc2nc3ccccc3[nH]2)C1`, the cytotoxicity at 70.5 h was found to be 4.35%.

In the case of `COc1ccc(CN2C[C@@H](F)[C@@H](OCc3nc4cnccc4[nH]3)C2)cn1`, the cytotoxicity at 70.5 h is -4.62%.

For the compound `N#Cc1cccc(CN2C[C@@H](F)[C@@H](OCc3nc4ccccc4[nH]3)C2)c1`, the cytotoxicity at 70.5 h was -2.32%.

Take `Cc1cccc(CN2C[C@@H](F)[C@@H](OCc3nc4ccccc4[nH]3)C2)n1`: the cytotoxicity at 70.5 h was -1.57%.

For `COc1ccc(CN2C[C@@H](F)[C@@H](OCc3nc4ccccc4[nH]3)C2)cn1`, the cytotoxicity at 70.5 h was -2.98%.

With `O=C1CO[C@H](c2ccc(NS(=O)(=O)Cc3ccccc3)cc2)[C@@H](CO)N1`, the cytotoxicity at 70.5 h stood at 12%.

Regarding `CC(=O)Nc1ccc2c(c1)nc1n2[C@@H](CNCc2ccccc2)COC1`, the cytotoxicity at 70.5 h is -11.7%.

For the compound `COc1ccc(CNC[C@H]2COCc3nc4cc(F)ccc4n32)cc1`, the cytotoxicity at 70.5 h was -14.9%.

As for `Cc1cc2nc(CO[C@H]3CN(C(=O)C4CC4)C[C@H]3F)[nH]c2cc1C`, the cytotoxicity at 70.5 h turned out to be 27.1%.

For `Cc1cc2nc(CO[C@H]3CN(C4CCCCC4)C[C@H]3F)[nH]c2cc1C`, the cytotoxicity at 70.5 h came to 3.34%.

For `Cc1cc2nc(CO[C@H]3CN(CC4CC4)C[C@H]3F)[nH]c2cc1C`, the cytotoxicity at 70.5 h was -2.67%.

Consider `COC(=O)c1cccc2nc([C@H]3CCN(CC(C)C)C3)oc12`, for which the cytotoxicity at 70.5 h was -4.07%.

As for `CN(CCc1ccccc1)Cc1cc(C(=O)N2CCN(C)C(=O)C2)no1`, the cytotoxicity at 70.5 h is -14.7%.

For `O=C(Cc1ccc(O)c(Cl)c1)N1CCCCC1CCn1cccn1` (stereo not drawn), the cytotoxicity at 70.5 h is -4.41%.

With `CCc1nc(C)c([C@H]2CN(C)C[C@@H]2C(=O)Nc2ccc(OC)cc2)[nH]1`, the cytotoxicity at 70.5 h is -7.07%.

`CN(CCCc1cnn(C)c1)C(=O)C1CCOC1` (stereo not drawn): the cytotoxicity at 70.5 h was 12.6%.

`CCC(OC)C(=O)N1CCc2nc(NC)nc(C(=O)N3CCCC3)c2C1` (stereo not drawn): the cytotoxicity at 70.5 h was -5.78%.

Take `CN(C)c1nc2c(c(N3CCC(O)CC3)n1)CN(CC1CCNC1)CC2` (stereo not drawn): the cytotoxicity at 70.5 h is -11.3%.

As for `CNC(=O)CN(C)c1nc(-c2ccncc2)nc2c1CCN(C(C)=O)C2`, the cytotoxicity at 70.5 h was -6.78%.

Regarding `COc1cc(C)sc1C(=O)N1CC(c2cccnc2)C1`, the cytotoxicity at 70.5 h is -3.92%.

`Cc1[nH]c(=O)[nH]c(=O)c1CN1CCCC(CCc2c(F)cccc2F)C1` (stereo not drawn): the cytotoxicity at 70.5 h was -12.5%.

Turning to `COCCC(=O)N1CCC2(CC1)CC(c1ccccc1)CN(C)C2` (stereo not drawn), the cytotoxicity at 70.5 h was -5.14%.

Take `CC(C)N1CCC(NCc2cccnc2N(C)C)CC1`: the cytotoxicity at 70.5 h stood at 2.11%.

For the compound `Cc1nc(N2CCN(C)CC2)ncc1C(=O)N1CCC(O)(CO)CC1`, the cytotoxicity at 70.5 h was -6.38%.

Regarding `CN(CCCc1cnn(C)c1)C(=O)C1COc2ccccc2C1` (stereo not drawn), the cytotoxicity at 70.5 h is -5.74%.

In the case of `CCCc1noc(CN(C)C(=O)C2COc3ccccc3C2)n1` (stereo not drawn), the cytotoxicity at 70.5 h was -16.1%.

On to `O=S1(=O)COCCN1Cc1cccc(Cl)c1`, for which the cytotoxicity at 70.5 h is -8.17%.

On to `CCn1cc(CN2CCCC(CO)(CCc3ccccc3)C2)c(C)n1` (stereo not drawn), for which the cytotoxicity at 70.5 h is -7.26%.

Consider `CCc1cc(NCCc2ccc(O)cc2)n2nccc2n1`, for which the cytotoxicity at 70.5 h amounted to 2.9%.

As to `COc1ccccc1[C@@H]1CN(Cc2cc(C(C)(C)C)[nH]n2)C[C@H]1C(=O)O`, the cytotoxicity at 70.5 h was -7.86%.

Turning to `O=C(CCCc1cn[nH]c1)N1C[C@@H](CN2CCOCC2)[C@@H](CO)C1`, the cytotoxicity at 70.5 h turned out to be 17.7%.

Take `CN(CCc1ccccc1)Cc1cc(C(=O)N2CCCC2(C)C)no1`: the cytotoxicity at 70.5 h turned out to be 8.4%.

Regarding `O=C(c1cnccn1)N1C[C@@H]2CC[C@H](C1)N(C(=O)Cc1ccsc1)C2`, the cytotoxicity at 70.5 h was -1.28%.

Take `COc1ccc(C(=O)C2CCCN(Cc3ccncc3)C2)c(OC)c1` (stereo not drawn): the cytotoxicity at 70.5 h was -9.3%.

Regarding `CCN(CC)c1ccc(-c2nc(-c3cccc(OC)c3OC)no2)cn1`, the cytotoxicity at 70.5 h was -7.4%.

For `COC(=O)c1ccc2ccn(CC3CCNC3)c(=O)c2c1` (stereo not drawn), the cytotoxicity at 70.5 h was -1.63%.

As to `Cc1ccsc1CN(CCN(C)C)Cc1ccccn1`, the cytotoxicity at 70.5 h was -4.97%.

For `Cc1ccccc1CSc1nc(N)cc(N2C[C@H](O)[C@@H](N(C)C)C2)n1`, the cytotoxicity at 70.5 h is -2.01%.

As for `COC(=O)N1C[C@H]2CC[C@@H]1CN(Cc1cscn1)C2`, the cytotoxicity at 70.5 h was found to be 1.18%.

Consider `CC(C)Oc1cccc(C(=O)C2CCCN(C(=O)c3ncn[nH]3)C2)c1` (stereo not drawn), for which the cytotoxicity at 70.5 h was -9.49%.

Consider `O=C(CN1CCCC(c2ccc(C(=O)O)cc2)C1)NC1CC1` (stereo not drawn), for which the cytotoxicity at 70.5 h is -5.55%.

For `COc1ccccc1CN(C)C(=O)c1cc(CN2CCC(O)CC2)on1`, the cytotoxicity at 70.5 h was -0.685%.

`CNC(=O)c1cccc(CNC(=O)C2CC(=O)N(CCN(C)C)C2)c1` (stereo not drawn): the cytotoxicity at 70.5 h is -5.17%.

On to `COCC(O)CNC(=O)c1cnc(-c2ccccc2)nc1O` (stereo not drawn), for which the cytotoxicity at 70.5 h was -11.4%.

As for `CCCC(C)CN1CCC(n2cc(C3CCCC3)nn2)CC1` (stereo not drawn), the cytotoxicity at 70.5 h was -6.08%.

`CCn1nc(CC(C)C)cc1C(=O)N1C[C@H](O)[C@@H](N2CCCCC2)C1`: the cytotoxicity at 70.5 h was -4.55%.

In the case of `CCc1ncc(CNC2CC(=O)N(CCc3cccc(Cl)c3)C2)cn1` (stereo not drawn), the cytotoxicity at 70.5 h was -4.07%.

Turning to `CCn1c(Cn2cncn2)nnc1C1CCN(Cc2ccncc2)CC1`, the cytotoxicity at 70.5 h is -6.34%.

With `CC(C)c1nccn1CCCNC(=O)c1ccc(N(C)C)nc1`, the cytotoxicity at 70.5 h was -1.73%.

`Cn1cccc1C(=O)N1CCCN(CCCc2ccccc2)CC1`: the cytotoxicity at 70.5 h was found to be 7.34%.

On to `Cn1c(Cn2ccnc2)nnc1C1CCN(C(=O)C2(C)CC2)CC1`, for which the cytotoxicity at 70.5 h was -9.41%.

For the compound `CCn1nc(C)c(CCNC(=O)C2CCCN(C(=O)N(C)C)C2)c1C` (stereo not drawn), the cytotoxicity at 70.5 h was -11.9%.

In the case of `Cc1nn(C)cc1C(=O)N1C[C@H]2CC[C@@H]1CN(S(=O)(=O)N(C)C)C2`, the cytotoxicity at 70.5 h is -4.81%.

On to `CCOCCn1nc(C)cc1C(=O)N1CC[C@](C)(O)[C@H](C)C1`, for which the cytotoxicity at 70.5 h is -8.61%.

Consider `Cc1cc(N2CCC3(CCC(=O)N(CC4CC4)C3)CC2)nc(N)n1`, for which the cytotoxicity at 70.5 h is -9.89%.

On to `O=C(O)CCc1cc2n(n1)CCCN(C(=O)c1ccc3cc[nH]c3c1)C2`, for which the cytotoxicity at 70.5 h was -14%.

For the compound `NC(=O)COc1cccc(C(=O)Nc2cnc3n2CCCC3)c1`, the cytotoxicity at 70.5 h was -5.66%.

For the compound `CN(Cc1ccon1)C(=O)C1CC(=O)N(Cc2ccncc2)C1` (stereo not drawn), the cytotoxicity at 70.5 h was -6.33%.

Consider `O=C1O[C@@H]2CN(Cc3cccc(F)c3)C[C@@H]2N1CCCN1CCOCC1`, for which the cytotoxicity at 70.5 h amounted to 9.24%.

As to `O=C(CCc1cc2n(n1)CCCN(C(=O)c1ccccn1)C2)NC1CC1`, the cytotoxicity at 70.5 h was -4.46%.

As to `COc1ccc2c(c1)CCN(CCC(=O)NC1CCCCC1)CC2`, the cytotoxicity at 70.5 h was -9.14%.

Take `CN1CCCN(C[C@@H]2CN(C(=O)CCC3CCCC3)C[C@@H]2CO)CC1`: the cytotoxicity at 70.5 h is -7.86%.

In the case of `CCn1nc(C)c(CCNC(=O)C2CCCN(CC(N)=O)C2)c1C` (stereo not drawn), the cytotoxicity at 70.5 h turned out to be 19.1%.

Turning to `Cc1noc(C)c1CN1CC2(CCN(C(=O)c3cscn3)CC2)CC1=O`, the cytotoxicity at 70.5 h is -10.1%.

On to `CN1CCN(Cc2nc3ccccc3[nH]2)[C@H]2CS(=O)(=O)C[C@H]21`, for which the cytotoxicity at 70.5 h is -10.2%.

On to `COc1ccccc1[C@@H]1CN(C(=O)c2csc(C)n2)C[C@H]1C(=O)O`, for which the cytotoxicity at 70.5 h is -2.79%.

As to `O=S1(=O)C[C@@H]2[C@H](C1)N(Cc1cc(Cl)cc(Cl)c1)CCN2CC1CC1`, the cytotoxicity at 70.5 h is -17.1%.

Turning to `NC(=O)CN1CC2(CCC1=O)CCN(Cc1cc(F)ccc1Cl)CC2`, the cytotoxicity at 70.5 h is -11.5%.

On to `Cc1noc(C)c1C(=O)N(C)Cc1nc(-c2ccccn2)no1`, for which the cytotoxicity at 70.5 h was -1.56%.

For the compound `Cc1noc([C@@H]2CCCN2C(=O)C2CCN(C(=O)C3CCC3)CC2)n1`, the cytotoxicity at 70.5 h was 10.6%.

`Cc1ccc2cc(C3(O)CCN(C(=O)CN4CCCC4)CC3)ccc2n1`: the cytotoxicity at 70.5 h was -3.01%.

Consider `Cc1nc[nH]c1CN1C[C@@H]2CC[C@H](C1)N(C(=O)CCc1cnn(C)c1)C2`, for which the cytotoxicity at 70.5 h was -1.54%.
